Measurements taken from patent publication US20070060605A1, “Compositions and methods for inhibiting platelet activation and thrombosis” (priority 2001, published 2007).
Read-outs that look alike come from different tables or passages of the source.

Legend:
platelets = assay: Agonist-induced platelet granule secretion / activation (P-selectin expression by flow cytometry; ADP/ATP release); format: cell-based, human
Method: In order to monitor ATP release, a cocktail of 100 μM SFLLR (synthesized using solid phase Fmoc chemistry on an Applied Biosystems model 430A peptide synthesizer) and 3 mg/ml of luciferin/luciferase (Sigma, St. Louis, Mo.) in a volume of 10 μl is added to 20 μl of PRP. Samples are immediately analyzed for luminescence. Activated platelets supply the ATP necessary for luminescence of the luciferin/luciferase assay. Assays can be performed at high throughput through use of a microtiter plate system, e.g., 384-well plates and a Multidrop 384 (Thermo Labsystems, Helsinki), read with a high density imaging system, e.g., the Tundra system (Imaging Research, St. Catherine's, Ontario).
In order to assay platelet activation by cell surface marker expression, fresh PRP is isolated from donors who have not ingested aspirin for two weeks prior to donation. PRP (40 μl) is incubated with known or suspected inhibitor in DMSO or DMSO alone for 15 min. The sample is then incubated with the indicated agonist (e.g., SFLLR) for 10 min. Following incubation of the sample with the indicated agonist, 10 μl of reaction mixture is transferred to 5 μl of phycoerythrin (PE)-conjugated AC 1.2 anti-P-selectin antibody (for assessment of P-selectin surface expression) or fluorescein isothiocyanate (FITC)-conjugated PAC-1 antibody (for assessment of GPIIbIIIa activation). PBS (500 μl) is added to the sample after a 20 min incubation and the platelets are analyzed immediately by flow cytometry. Flow cytometry can be performed using, for example, a Becton-Dickinson FACSCalibur flow cytometer or its equivalent. Fluorescent channels are set at logarithmic gain. Ten thousand particles are acquired for each sample. A 530/30 band pass filter is used for FL-1 fluorescence. A 585/42 band pass filter is used for FL-2 fluorescence. FITC is measured in the FL-1 channel and PE is measured in the FL-2 channel. Data are analyzed using, for example, CellQuest software on a Macintosh PowerPC, or their equivalents.
Compounds were tested for the ability to inhibit agonist-induced ADP/ATP release from platelet dense granules using a luciferin-luciferase reporter system. In this assay, compounds were incubated with platelet-rich plasma (PRP) for 30 min. A cocktail of the platelet agonist and luciferin-luciferase was then added to the wells. Plates were immediately analyzed using a Tundra high density luminescence imager. […] As a control, compounds were also screened in a platelet-free assay for the ability to inhibit luciferin-luciferase upon exposure to ATP.
Each of the compounds was tested for inhibition of platelet activation in response to the agonists SFLLR (a thrombin mimic), U46619 (a thromboxane A2 mimic), ADP and the phorbol ester PMA.
Compounds were also tested by flow cytometry for the inhibition of SFLLR-induced GPIIbIIIa activation and P-selectin expression. In these experiments, freshly obtained PRP was prepared from healthy volunteers who had not ingested aspirin for two weeks prior to donation. Forty μl of PRP was incubated with inhibitor in DMSO or DMSO alone for 15 min. The sample was then incubated with the indicated agonist for 10 min. Following incubation of the sample with the indicated agonist, 10 μl of reaction mixture was transferred to 5 μl of PE-conjugated AC1.2 anti-P-selectin antibody (for assessment of P-selectin surface expression) or FITC-conjugated PAC-1 antibody (for assessment of GPIIbIIIa activation). PBS (500 μl) was added to the sample after a 20 min incubation and the platelets were analyzed immediately by flow cytometry. Flow cytometry was performed using a Becton-Dickinson FACSCalibur flow cytometer. Fluorescent channels were set at logarithmic gain. Ten thousand particles were acquired for each sample. A 530/30 band pass filter was used for FL-1 fluorescence. A 585/42 band pass filter was used for FL-2 fluorescence. FITC was measured in the FL-1 channel and PE was measured in the FL-2 channel.

[1] = tested on: platelet accumulation into thrombus; format: in vivo; conditions: bolus 6 mg/kg/5 min then continuous infusion 3 mg/kg/90 min; P<0.01
Source text: A preferred animal model involves intravital microscopy of laser-induced thrombi. The method is described by Rosen et al., 2001, Am J Pathol 158, 1613-1622, which is incorporated herein by reference. Minor variations of that method were employed as described below.
Experimental mice are pre-anesthetized and surgically prepared. A tracheal tube is placed to facilitate breathing and the jugular vein is canulated to allow for maintenance of anesthetic and introduction of compound. The cremaster muscle is then exteriorized. The muscle is affixed over a glass slide, allowing illumination from below. A steady drip of a sodium-bicarbonate buffered salt solution is maintained throughout the experiment to keep the exposed muscle moist. Blood flow in the muscle is visualized using a 40× water immersion lens and epi-illuminated with an appropriately filtered light source. Alexa 488-labeled anti-mouse CD41 antibody is injected through the jugular canulus to label platelets in vivo.
Thrombosis is initiated by damaging the vessel wall (of a 30 μm vessel) with a laser pulse from a MicroPoint LASER attached to the microscope. A LASER pulse is delivered, causing damage in an area smaller than 1 μm. The recruitment of platelets to the thrombus is then monitored by the accumulation of (activated) Alexa 488-labeled platelets at the ablation site using fluorescence microscopy, and the process is recorded digitally. The method thus permits in vivo analysis of platelet activation as measured by platelet aggregation and thrombosis.
The degree of embolization in an untreated mouse can be quantified using software for image analysis, e.g., BioQuant True Color Windows (Biometrics, Nashville, Tenn.), as described in Rosen et al., 2001, supra. The software package permits the determination of the “integrated optical density” or IOD of the thrombus.
Using quantitative intravital fluorescence videomicroscopy with high temporal resolution (111 images/second), the effect of PDE3 inhibition on the platelet recruitment into thrombi was directly observed over time. Platelets were fluorescently labeled by infusing rat-anti-mouse CD41 and Alexa 488-anti-rat IgG through a cannulated jugular vein. The cremaster microvasculature was exposed and mapped and suitable arteriole segments were selected for laser-induced injury. A series of control injuries were generated prior to infusion of the inhibitory compound. The power and the number of laser pulses required to generate each thrombus was recorded. Platelet accumulation to the thrombi following laser ablation was recorded using digital videomicroscopy. The thrombus total fluorescence in each frame of the videos was analyzed using Slidebook software for digital videomicroscopy. The pyridazinone compound was then infused. Following a 15 minute incubation, a series of experimental injuries were generated 250 μm proximal, with relationship to blood flow, of the first injury and the resultant thrombi were recorded. The power and the number of pulses required to induce the control thrombus was used to induce the experimental thrombus. The control and experimental thrombi constituting a pair were compared for statistical analysis. The total fluorescence intensity of the thrombi before and after the infusion of pyridazinone compound was recorded.
Images from a representative experiment of the recruitment of fluorescently-labeled […] platelets into a growing thrombus over time is shown in FIG. 9A.

[2] = target: platelet cGMP-inhibited phosphodiesterase (Homo sapiens, UniProt Q14432); conditions: Omburo et al., 1995; cited from earlier work
[3] = patients suffering intermittent claudication; cited from earlier work

platelet cGMP-inhibited phosphodiesterase, sequence (Q14432 whole entry): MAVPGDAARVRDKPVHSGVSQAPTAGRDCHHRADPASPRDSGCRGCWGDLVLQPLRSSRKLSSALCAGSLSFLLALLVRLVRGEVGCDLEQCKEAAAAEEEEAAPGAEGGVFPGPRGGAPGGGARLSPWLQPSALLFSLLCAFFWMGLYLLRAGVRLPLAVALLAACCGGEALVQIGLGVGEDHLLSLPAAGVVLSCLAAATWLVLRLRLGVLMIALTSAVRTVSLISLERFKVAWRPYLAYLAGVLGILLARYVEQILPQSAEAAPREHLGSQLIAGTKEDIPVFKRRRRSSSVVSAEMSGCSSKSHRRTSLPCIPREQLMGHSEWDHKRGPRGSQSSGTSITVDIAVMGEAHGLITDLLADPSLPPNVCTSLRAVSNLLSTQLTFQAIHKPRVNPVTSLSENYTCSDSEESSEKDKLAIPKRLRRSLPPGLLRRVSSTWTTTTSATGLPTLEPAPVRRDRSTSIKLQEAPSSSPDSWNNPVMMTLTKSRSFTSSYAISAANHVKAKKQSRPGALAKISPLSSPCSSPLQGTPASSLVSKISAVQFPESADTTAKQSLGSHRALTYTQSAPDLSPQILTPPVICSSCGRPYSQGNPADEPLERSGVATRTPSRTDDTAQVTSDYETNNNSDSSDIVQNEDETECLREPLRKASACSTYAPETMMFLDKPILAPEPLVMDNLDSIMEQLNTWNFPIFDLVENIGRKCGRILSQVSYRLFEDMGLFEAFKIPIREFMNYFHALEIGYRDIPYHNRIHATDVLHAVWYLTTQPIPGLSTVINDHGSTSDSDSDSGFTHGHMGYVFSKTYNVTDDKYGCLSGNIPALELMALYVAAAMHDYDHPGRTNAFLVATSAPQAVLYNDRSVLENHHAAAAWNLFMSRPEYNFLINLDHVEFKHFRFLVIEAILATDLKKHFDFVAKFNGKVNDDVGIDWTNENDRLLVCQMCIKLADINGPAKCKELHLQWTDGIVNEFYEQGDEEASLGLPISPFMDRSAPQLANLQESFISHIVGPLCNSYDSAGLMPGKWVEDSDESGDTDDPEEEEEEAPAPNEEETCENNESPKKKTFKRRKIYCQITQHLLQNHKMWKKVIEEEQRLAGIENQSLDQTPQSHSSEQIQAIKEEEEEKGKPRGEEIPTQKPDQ

9-methylene-4-(alkyl)-2,3,4,9-tetrahydro-1H-cyclopenta(b)quinoline
IC50 (platelets; agonist ADP, read-out: IC50s of inhibition of platelet granule secretion induced with ADP): 650 µM | IC50 (platelets; agonist PMA, read-out: IC50s of inhibition of platelet granule secretion induced with PMA): 300 µM | IC50 (platelets; agonist SFLLR, read-out: IC50s of inhibition of platelet granule secretion induced with SFLLR): 5 µM | IC50 (platelets; agonist U-46619, read-out: IC50s of inhibition of platelet granule secretion induced with U-46619): 400 µM | Inhibition of thrombosis following laser-induced injury [1]: greater than 80% | Activation of mouse platelets by several platelet agonists (mouse platelets): inhibits

c1cnc2c(c1)ccc1cccnc12 [[1,10]phenanthroline]
IC50 [2]: ~2000 µM

O=C1CCc2cc(OCCCCc3nnnn3C3CCCCC3)ccc2N1 [cilostazol]
Increase of distance of pain free walking [3]: up to 59%
